≈ marks a conversion by molar mass, not a printed value. Marks after values point to notes of the source that are not given here.
Columns and labels:
[1] = test system: Staphylococcus aureus ATCC25923; test: Broth microdilution MIC/MMC; assay type: cell-based; details: for MBC / MMC/MIC: Staphylococcus aureus ATCC25923; for MIC: Staphylococcus aureus ATCC25923, 24 h, 37°C, read-out: MIC
Experimental: (§1) The antimicrobial activity was performed against five bacterial and two fungal species. The selected microorganisms were the Gram-positive (Staphylococcus aureus ATCC25923, methicillin-resistant Staphylococcus aureus 03 (MRSA03), and methicillin-resistant Staphylococcus aureus 04 (MRSA04)) and Gram-negative (Pseudomonas aeruginosa ATCC27853 and Escherichia coli S2(1)) bacteria and yeast strains of Candida albicans ATCC10231 and Cryptococcus neoformans H99. These microorganisms were taken from our laboratory collection. The fungal and bacterial strains were conserved on Sabouraud Dextrose Agar (SDA, Conda, Madrid, Spain) and nutrient agar (NA, Conda) slants, respectively.
(§2) The antimicrobial activity was investigated by determining the minimum inhibitory concentrations (MICs), minimum bactericidal concentrations (MBC), and minimum fungicidal concentrations (MFCs). MICs of extracts/compounds were monitored using the broth microdilution method. Dimethyl sulfoxide (DMSO, Fisher Chemicals) was used to dissolve the test sample to produce a stock solution that was twofold serially diluted in Mueller-Hinton broth (MHB) for bacteria and Sabouraud Dextrose Broth (SDB) for fungi to obtain a concentration range of 4096 to 0.25 μg/mL. One hundred microliters of each concentration was introduced into a well (96-well microplate) containing 90 μL of SDB or MHB and 10 μL of inoculum (at 1 × 10^6 CFU/mL for bacteria and 1 × 10^5 spores/mL for yeasts) which were added to obtain a final concentration range of 2048 to 0.125 μg/mL. Plates were covered and incubated on the shaker at 37°C, 30°C, and 30°C during 24 h, 48 h, and 72 h for bacteria, Candida albicans, and Cryptococcus neoformans, respectively. The MICs were visually assessed after the incubation period and were considered the lowest sample concentration that inhibits the growth or the visual growth of the organism.
(§3) The positive controls were oxacillin (Sigma-Aldrich, Steinheim, Germany) for bacteria and nystatin (Sigma-Aldrich, Steinheim, Germany) for yeasts, and the negative control was broth with 20 μL of DMSO. The assay was carried out in triplicate.

[2] = test system: Cryptococcus neoformans H99; test: Broth microdilution MIC/MMC; assay type: cell-based
Experimental: as §1, §2, §3

[3] = test system: Candida albicans ATCC10231; test: Broth microdilution MIC/MMC; assay type: cell-based
Experimental: as §1, §2, §3

[4] = test system: methicillin-resistant Staphylococcus aureus 04 (MRSA04); test: Broth microdilution MIC/MMC; assay type: cell-based; details: for MMC/MIC / MBC: MRSA04; for MBC / MIC: Staphylococcus aureus; for MIC: MRSA04, 24 h, 37°C, read-out: MIC
Experimental: as §1, §2, §3

[5] = test system: methicillin-resistant Staphylococcus aureus 03 (MRSA03); test: Broth microdilution MIC/MMC; assay type: cell-based; details: for MMC/MIC / MBC: MRSA03; for MBC / MIC: Staphylococcus aureus; for MIC: MRSA03, 24 h, 37°C, read-out: MIC
Experimental: as §1, §2, §3

Escherichia coli S2(1) = test: Broth microdilution MIC/MMC; assay type: cell-based; details: for MIC: 24 h, 37°C, read-out: MIC
Experimental: as §1, §2, §3

[6] = test system: Pseudomonas aeruginosa ATCC27853; test: Broth microdilution MIC/MMC; assay type: cell-based; details: for MBC / MMC/MIC: Pseudomonas aeruginosa ATCC27853; for MIC: Pseudomonas aeruginosa ATCC27853, 24 h, 37°C, read-out: MIC
Experimental: as §1, §2, §3

[7] = DPPH free radical scavenging assay; details: mean ± SD
Experimental: The free radical scavenging activity of extracts and compounds was evaluated according to the described method. The EC50 (μg/mL), which is the amount of sample necessary to inhibit by 50% the absorbance of free radical DPPH, was calculated. Vitamin C was used as a standard control. All the analyses were carried out in triplicate and repeated three times.

[8] = test system: methicillin-resistant Staphylococcus aureus and methicillin-sensitive S. aureus strains; set-up: method as in PMID 27284353; details: MRSA and MSSA strains, previous study; cited from earlier work
[9] = test system: tested bacteria and yeasts; test: Broth microdilution MIC/MMC, summary over all strains; assay type: cell-based
Experimental: as §1, §2, §3

[10] = Gallic acid equivalent antioxidant capacity (GEAC) assay; details: ABTS radical, 420 nm, 240 s; mean ± SD
Experimental: The GEAC test was performed as described previously with some slight modifications. The laccase was purified from Sclerotinia sclerotiorum according to the described protocol. 20 μL of laccase (1 mM stock solution), 20 μL of test sample, 10 μL of ABTS (2,2′-azino-bis(3-ethylbenzothiazoline-6-sulfonic acid) (74 mM stock solution), and 950 μL of acetate buffer (pH = 5.0, 100 mM) were added in a quartz cuvette. The concentrations of the samples in the assay mixture were 800, 400, 200, 100, and 10 μg/mL for the extracts and 200, 100, 50, 25, and 12.5 μg/mL for the isolated compounds. The content of the generated ABTS^●+ radical was measured at 420 nm after 240 s reaction time and was converted to gallic acid equivalents by the use of a calibration curve (Pearson's correlation coefficient: r = 0.998) constructed with 0, 4, 10, 14, 28, 56, and 84 μM gallic acid standards rather than Trolox. Experiments were done in triplicate and repeated three times with similar results.

[11] = test system: Staphylococcus aureus ATCC25923; test: Bacteriolytic assay (time-kill kinetic method, OD600); assay type: cell-based; details: Staphylococcus aureus ATCC25923 suspension, 2xMIC, after 240 min, compared to the 0 time value
Experimental: (§4) (1) Bacteriolytic Assay. […] Full growth of bacterium in MHB was diluted 100 times and incubated at 37°C to produce an OD600 of 0.8 as a starting inoculum. Sample solutions were added to the starting bacterial suspension to give a final concentration of 2xMIC and incubated at 37°C under agitation at 150 rpm. After the incubation period corresponding to 0, 15, 30, 60, 120, and 240 min, 100 μL was pipetted from each tube and the optical density was recorded at 600 nm using the Biobase UV-Vis spectrophotometer. Corresponding dilutions of test samples were used as blanks. Oxacillin was used as a positive control, and the tubes without an extract/compound served as negative controls. All the measurements were done in triplicate and repeated three times.

[12] = test system: Pseudomonas aeruginosa ATCC27853; test: as above; assay type: cell-based; details: Pseudomonas aeruginosa suspension, 2xMIC, after 240 min, compared to the 0 time value
Experimental: as §4

catalase = test: Catalase activity in treated bacterial cell lysates; assay type: cell-based; details: Staphylococcus aureus ATCC25923 and MRSA03, MIC and 1/2xMIC, 24 h
Experimental: (§5) (3) Antioxidant Enzyme Activities. For evaluation of catalase and superoxide dismutase (SOD) activities, Staphylococcus aureus ATCC25923 and MRSA03 (1.5 × 10^8 CFU/mL, 500 μL) cultures from the late exponential growth phase were treated with MIC and 1/2xMIC of the methanol extract (500 μL), compound 5 (500 μL), and oxacillin (500 μL) solutions and incubated at 37°C for 24 h. The suspension was centrifuged at 3000 rpm for 5 min to separate the supernatant. The pellet was washed twice with PBS and resuspended in 500 μL of cell lysate buffer (1 mM EDTA, 10 Mm Tris-HCl, 0.1% Triton-X-100, and 150 mM NaCl) and incubated at 37°C for 1 h. Contents were then centrifuged at 3000 rpm for 5 min, and the supernatant was collected for enzyme activity assays.
Catalase activity. This was assessed by using a kit (Sigma, catalogue no. CAT100) with a cell lysate. Briefly, 750 μL of assay buffer (50 mM) was mixed with 25 μL of 50 mM H2O2 and 10 μL of cell lysate. […] The absorbance was monitored at 520 nm, and the catalase activity was calculated based on the following equation: [Δμ moles (H2O2) × d × 100)/V × t], where Δμ moles (H2O2) is the difference in amount of H2O2 added to the reaction mixture between blank and given samples, d is the dilution of the original sample for catalase reaction, V is the sample volume in catalase reaction, and t is the reaction duration (min).

[13] = test system: superoxide dismutase (SOD); test: Superoxide dismutase (SOD) activity in treated bacterial cell lysates; assay type: cell-based; details: Staphylococcus aureus ATCC25923 and MRSA03, MIC and 1/2xMIC, 24 h
Experimental: as §5
Superoxide dismutase (SOD) activity. This was determined using a kit (Sigma, catalogue no. 19160) in the cell lysate. […] The reaction mixture was incubated in the dark at 37°C for 20 min, and the absorbance was read at 450 nm on a BioTek Synergy 2 multiplate reader. The SOD activity was calculated based on the following formula: [(ABlank1–ABlank3) − (ASample–ABlank2)/(ABlank1–ABlank3) × 100], where Blank 1 contains ultrapure water, WST solution, and enzyme solution, Blank 2 contains sample solution, WST solution, and dilution buffer, and Blank 3 contains ultrapure water, WST solution, and dilution buffer.

red blood cells (RBCs) = assay type: cell-based, Wistar rats (Rattus norvegicus)
Experimental: Wistar rats (Rattus norvegicus) aged 10–12 weeks and weighing 220 to 250 g were randomly selected from our colony. Efforts were also made to minimize animal suffering and to reduce the number of animals used in the experiment. Intraperitoneal injection of the mixture of ketamine (50 mg/kg body weight, BW) and xylazine (10 mg/kg BW) was used to anaesthetize the rats in a dose that is commonly used for operation purposes. And subsequently, the unconscious animals were quickly operated on and the whole blood (10 mL) was collected by cardiac puncture into a conical tube containing Ethylenediaminetetraacetic Acid (EDTA) as an anticoagulant. Red blood cells were harvested by centrifugation at room temperature for 10 min at 1,000 × g and were washed three times in PBS buffer^23. The haemolysis assay was evaluated as previously described.

Row | Compound | MBC [1] | MMC/MIC [1] | MIC [1] | MMC/MIC [4] | MBC [4] | MIC [4] | MMC/MIC [5] | MBC [5] | MIC [5] | MBC (Escherichia coli S2(1)) | MMC/MIC (Escherichia coli S2(1)) | MIC (Escherichia coli S2(1)) | MBC [6] | MMC/MIC [6] | MIC [6] | further results
1 | O=c1cc(-c2ccc(O)c(O)c2)oc2cc(O)cc(O)c12 [compound 3, luteolin] | 64 µg/mL (≈ 224 µM) | 2 | 32 µg/mL (≈ 112 µM) | 2 | 64 µg/mL (≈ 224 µM) | 32 µg/mL (≈ 112 µM) | 1 | 16 µg/mL (≈ 55.9 µM) | 16 µg/mL (≈ 55.9 µM) | 32 µg/mL (≈ 112 µM) | 1 | 32 µg/mL (≈ 112 µM) | 64 µg/mL (≈ 224 µM) | 2 | 32 µg/mL (≈ 112 µM) | MFC ([2]; Cryptococcus neoformans H99): 16 µg/mL (≈ 55.9 µM); MMC/MIC ([2]; Cryptococcus neoformans H99): 2; MIC ([2]; Cryptococcus neoformans H99, 72 h, 30°C, read-out: MIC): 8 µg/mL (≈ 27.9 µM); MFC ([3]; Candida albicans ATCC10231): 32 µg/mL (≈ 112 µM); MMC/MIC ([3]; Candida albicans ATCC10231): 2; MIC ([3]; Candida albicans ATCC10231, 48 h, 30°C, read-out: MIC): 16 µg/mL (≈ 55.9 µM); DPPH free radical scavenging activity (EC50) [7]: 8.02 ± 1.16^e μg/mL; MIC [8]: 62.5 µg/mL (≈ 218 µM); antimicrobial activity class of pure compounds by cutoff points ([9]; against specific microorganism, cutoff points of ref 33): significant/moderate; MIC ([9]; read-out: MIC (range over the tested microorganisms)): 8 to 32 µg/mL (≈ 27.9 to 112 µM); Gallic acid equivalent antioxidant capacity (GEAC) [10]: 68.30 ± 0.71^f μg/mL
2 | Cc1onc(-c2ccccc2)c1C(=O)N[C@@H]1C(=O)N2[C@@H]1SC(C)(C)[C@@H]2C(=O)O [oxacillin, reference compound] | 1 µg/mL (≈ 2.49 µM) | 1 | 1 µg/mL (≈ 2.49 µM) | 1 | 8 µg/mL (≈ 19.9 µM) | 8 µg/mL (≈ 19.9 µM) | 2 | 8 µg/mL (≈ 19.9 µM) | 4 µg/mL (≈ 9.96 µM) | 32 µg/mL (≈ 79.7 µM) | 2 | 16 µg/mL (≈ 39.9 µM) | 2 µg/mL (≈ 4.98 µM) | 1 | 2 µg/mL (≈ 4.98 µM) | decline in cell turbidity [11]: 2%; decline in cell turbidity [12]: 2%; catalase activity vs untreated cell lysates (catalase): significant concentration-dependent decreases; SOD activity vs untreated cell lysates [13]: significant concentration-dependent decreases; MMC/MIC (microbicidal activities) ([9]; against all the tested microorganisms): ≤ 4
3 | Triton X-100 |  |  |  |  |  |  |  |  |  |  |  |  |  |  |  | lysis of RBCs (red blood cells (RBCs)): about 100%
